Results from US20060019400A1, “Method for the determination of glucuronides in physiological samples” (University of Maryland, priority 2004, published 2006).

What was measured:
[1] = Ethyl glucuronide levels in postmortem urine by SPE and HPLC-PED; parameters: species or system human; conditions: in vivo
Protocol: A ternary gradient solvent delivery pump 106 (Model 8800; Spectra Physics, Mountain View, Calif.) equipped with mixing chamber 104 and on-line degasser unit 102 (Model KT-35M; Shodex, Clear Brook, Va.) were used to provide solvent delivery to analytical column 110. In certain embodiments, isocratic separations are performed using a 1% acetic acid/water:acetonitrile (98:2, v/v) mobile phase set to a flow rate of 1.0 mL ? min-1. Injection valve 108 (Model 7010; Rheodyne, Rohnert Park, Calif.) is fitted with a 50 μL injection loop. Separations can be performed using any suitable analytical column, selected based upon the glucuronide(s) of interest. For example, a reversed-phase (C18; 250×4.6 mm, 5 μm, 100 Å) Denali column (Vydac, Columbia, Md.) with guard column (C18; 7.5×4.6 mm, 5 μm; Vydac) can be used, or a bonded-phase silica column comprising a C18 functional group bonded to its surface using a sulfonamide group coupled to an ether linkage (DIONEX® PA column, DIONEX®, Sunnyvale, Calif.) can be used. Post-column addition of NaOH 112 (for example, 600 mM NaOH), necessary to promote PED-activity, was accomplished by a reagent delivery module (RDM, Dionex, Sunnyvale, Calif.). […]
All urine samples (1.0 mL) were pretreated with 100 μL of 3 M HCl and 3 mL acetonitrile. […] The reconstituted solution was diluted further to bring EtG within the linear range of quantitation. […]

[2] = after alcohol consumption; cited from earlier work

CCO[C@@H]1O[C@H](C(=O)O)[C@@H](O)[C@H](O)[C@H]1O [EtG, Ethyl glucuronide]
EtG levels in postmortem samples [1]: 3 to 700 µg/mL
period of detection after the complete elimination of alcohol from the body [2]: up to 80 h
